Measurements from ChEMBL document CHEMBL5126517, “Structure-Activity Relationship in the Leucettine Family of Kinase Inhibitors” (J Med Chem, 2022).

Assays:
[1] = target: Glycogen synthase kinase-3 (Sus scrofa, UniProt B2LUN4+I6LNT8); assay: Inhibition of porcine brain GSK-3alpha/beta using YRRAAVPPSPSLSRHSSPHQpSEDEEE as substrate incubated for 30 mins in presence of ATP by scintillation counting method; assay type: tissue-based
[2] = target: Dual specificity protein kinase CLK4 (Mus musculus, UniProt O35493); assay: Inhibition of GST-fused mouse recombinant CLK4 expressed in Escherichia coli using GRSRSRSRSRSR peptide as substrate incubated for 30 mins in presence of ATP by scintillation counting method
Chain of Dual specificity protein kinase CLK4 (O35493 whole entry, the tested form may be a part): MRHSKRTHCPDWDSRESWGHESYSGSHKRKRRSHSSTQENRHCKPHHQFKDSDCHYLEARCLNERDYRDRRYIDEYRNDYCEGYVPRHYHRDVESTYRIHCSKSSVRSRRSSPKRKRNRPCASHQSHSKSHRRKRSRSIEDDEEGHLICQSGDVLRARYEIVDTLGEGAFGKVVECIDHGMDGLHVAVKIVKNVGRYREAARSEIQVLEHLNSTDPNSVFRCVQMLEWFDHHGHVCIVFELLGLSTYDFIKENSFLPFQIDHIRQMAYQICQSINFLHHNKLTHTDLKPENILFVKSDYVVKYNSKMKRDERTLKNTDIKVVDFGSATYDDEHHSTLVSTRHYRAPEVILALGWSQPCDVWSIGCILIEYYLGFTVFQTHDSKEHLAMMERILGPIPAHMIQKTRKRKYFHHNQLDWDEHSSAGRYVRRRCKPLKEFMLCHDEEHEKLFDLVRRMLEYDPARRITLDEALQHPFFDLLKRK

[3] = target: Dual specificity protein kinase CLK3 (Mus musculus, UniProt O35492); assay: Inhibition of GST-fused mouse recombinant CLK3 expressed in Escherichia coli using GRSRSRSRSRSR peptide as substrate incubated for 30 mins in presence of ATP by scintillation counting method
Chain of Dual specificity protein kinase CLK3 (O35492 whole entry, the tested form may be a part): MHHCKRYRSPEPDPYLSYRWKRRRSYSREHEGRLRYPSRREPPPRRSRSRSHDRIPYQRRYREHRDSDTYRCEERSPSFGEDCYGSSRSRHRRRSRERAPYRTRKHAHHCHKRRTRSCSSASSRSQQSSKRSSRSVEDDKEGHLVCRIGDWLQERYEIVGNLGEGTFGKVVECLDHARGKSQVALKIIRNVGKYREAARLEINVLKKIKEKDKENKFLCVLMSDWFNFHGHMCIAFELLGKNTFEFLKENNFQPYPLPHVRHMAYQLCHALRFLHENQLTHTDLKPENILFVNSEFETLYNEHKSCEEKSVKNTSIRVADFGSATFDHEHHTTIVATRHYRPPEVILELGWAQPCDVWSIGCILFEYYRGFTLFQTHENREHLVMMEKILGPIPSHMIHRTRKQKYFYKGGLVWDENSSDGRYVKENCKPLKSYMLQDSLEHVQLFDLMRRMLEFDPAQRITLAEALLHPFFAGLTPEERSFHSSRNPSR

[4] = target: Dual specificity protein kinase CLK1 (Mus musculus, UniProt P22518); assay: Inhibition of GST-fused mouse recombinant CLK1 expressed in Escherichia coli using GRSRSRSRSRSR peptide as substrate incubated for 30 mins in presence of ATP by scintillation counting method
Chain of Dual specificity protein kinase CLK1 (P22518 whole entry, the tested form may be a part): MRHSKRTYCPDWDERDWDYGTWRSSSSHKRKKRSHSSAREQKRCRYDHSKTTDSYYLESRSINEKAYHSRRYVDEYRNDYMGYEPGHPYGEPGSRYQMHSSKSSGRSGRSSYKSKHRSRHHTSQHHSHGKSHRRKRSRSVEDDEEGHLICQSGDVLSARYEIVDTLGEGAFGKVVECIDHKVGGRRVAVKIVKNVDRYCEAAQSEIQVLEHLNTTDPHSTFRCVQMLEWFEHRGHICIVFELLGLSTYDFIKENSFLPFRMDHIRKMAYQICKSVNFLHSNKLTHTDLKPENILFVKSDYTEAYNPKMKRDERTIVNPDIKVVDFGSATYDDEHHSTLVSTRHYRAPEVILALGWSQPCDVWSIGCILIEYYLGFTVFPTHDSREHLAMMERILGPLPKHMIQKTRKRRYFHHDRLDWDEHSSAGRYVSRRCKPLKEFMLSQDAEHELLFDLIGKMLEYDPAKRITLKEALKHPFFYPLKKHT

[5] = target: Dual specificity protein kinase CLK2 (Mus musculus, UniProt O35491); assay: Inhibition of mouse recombinant GST-fused CLK2 expressed in Escherichia coli using GRSRSRSRSRSR peptide as substrate incubated for 30 mins in presence of ATP by scintillation counting method
Chain of Dual specificity protein kinase CLK2 (O35491 whole entry, the tested form may be a part): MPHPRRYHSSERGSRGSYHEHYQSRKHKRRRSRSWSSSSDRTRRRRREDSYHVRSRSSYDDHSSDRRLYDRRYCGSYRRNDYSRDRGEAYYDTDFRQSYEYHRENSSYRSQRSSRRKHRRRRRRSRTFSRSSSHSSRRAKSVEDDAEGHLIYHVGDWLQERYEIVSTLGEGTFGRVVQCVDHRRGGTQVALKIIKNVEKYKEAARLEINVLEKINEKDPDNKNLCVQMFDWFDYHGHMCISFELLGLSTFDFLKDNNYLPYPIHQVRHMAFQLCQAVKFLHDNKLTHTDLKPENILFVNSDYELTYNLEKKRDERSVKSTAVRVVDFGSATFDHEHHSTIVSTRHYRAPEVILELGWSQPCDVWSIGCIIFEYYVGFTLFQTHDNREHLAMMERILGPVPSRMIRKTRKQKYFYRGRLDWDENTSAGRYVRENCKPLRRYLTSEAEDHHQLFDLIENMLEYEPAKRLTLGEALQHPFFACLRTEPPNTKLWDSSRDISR

[6] = target: Dual specificity tyrosine-phosphorylation-regulated kinase 1A (Homo sapiens, UniProt Q13627); assay: Inhibition of GST-fused human recombinant DYRK1A expressed in Escherichia coli using GRSRSRSRSRSR peptide as substrate incubated for 30 mins in presence of ATP by scintillation counting method
[7] = target: Dual specificity tyrosine-phosphorylation-regulated kinase 1B (Homo sapiens, UniProt Q9Y463)
Chain of Dual specificity tyrosine-phosphorylation-regulated kinase 1B (Q9Y463 whole entry, the tested form may be a part): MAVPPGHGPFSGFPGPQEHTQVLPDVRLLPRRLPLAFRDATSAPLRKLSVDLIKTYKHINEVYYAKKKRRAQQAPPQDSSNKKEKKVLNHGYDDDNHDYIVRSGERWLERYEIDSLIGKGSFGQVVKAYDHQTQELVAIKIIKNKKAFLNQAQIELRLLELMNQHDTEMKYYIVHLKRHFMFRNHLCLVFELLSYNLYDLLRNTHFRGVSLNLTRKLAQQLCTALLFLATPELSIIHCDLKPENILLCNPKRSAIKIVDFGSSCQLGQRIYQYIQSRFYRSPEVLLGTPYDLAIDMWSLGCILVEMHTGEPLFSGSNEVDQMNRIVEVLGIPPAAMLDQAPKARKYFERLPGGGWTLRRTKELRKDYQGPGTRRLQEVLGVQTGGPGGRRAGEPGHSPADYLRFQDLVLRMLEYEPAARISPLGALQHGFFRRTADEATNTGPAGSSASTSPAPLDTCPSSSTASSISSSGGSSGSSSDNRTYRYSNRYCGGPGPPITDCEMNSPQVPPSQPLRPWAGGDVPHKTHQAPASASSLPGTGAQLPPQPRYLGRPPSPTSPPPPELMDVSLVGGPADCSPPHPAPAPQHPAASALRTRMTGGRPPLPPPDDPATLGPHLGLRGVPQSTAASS

[8] = target: T1, Dual specificity tyrosine-phosphorylation-regulated kinase 2 (Homo sapiens, UniProt Q92630); assay: Inhibition of GST-fused human recombinant DYRK2 expressed in Escherichia coli using GRSRSRSRSRSR peptide as substrate incubated for 30 mins in presence of ATP by scintillation counting method
T1 sequence (Q92630 whole entry): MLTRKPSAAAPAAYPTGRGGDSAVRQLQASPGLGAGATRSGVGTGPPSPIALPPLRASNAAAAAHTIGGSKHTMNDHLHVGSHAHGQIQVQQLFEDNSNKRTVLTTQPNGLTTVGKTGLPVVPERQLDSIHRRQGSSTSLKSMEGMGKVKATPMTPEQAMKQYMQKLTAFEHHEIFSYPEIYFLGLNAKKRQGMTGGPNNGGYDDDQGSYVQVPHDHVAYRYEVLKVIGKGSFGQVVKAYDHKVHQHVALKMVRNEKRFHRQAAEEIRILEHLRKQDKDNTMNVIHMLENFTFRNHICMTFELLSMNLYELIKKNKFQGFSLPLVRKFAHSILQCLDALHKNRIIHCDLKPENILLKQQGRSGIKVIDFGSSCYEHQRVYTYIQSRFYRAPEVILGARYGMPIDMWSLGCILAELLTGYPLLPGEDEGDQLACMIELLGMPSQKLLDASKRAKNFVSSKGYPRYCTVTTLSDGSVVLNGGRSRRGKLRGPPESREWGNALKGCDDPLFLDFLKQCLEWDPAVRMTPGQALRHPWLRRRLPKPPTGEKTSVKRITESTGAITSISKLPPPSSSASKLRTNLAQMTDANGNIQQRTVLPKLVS

[9] = target: T2, Dual specificity tyrosine-phosphorylation-regulated kinase 3 (Homo sapiens, UniProt O43781); assay: Inhibition of GST-fused human recombinant DYRK3 expressed in Escherichia coli using GRSRSRSRSRSR peptide as substrate incubated for 30 mins in presence of ATP by scintillation counting method
T2 sequence (O43781 whole entry): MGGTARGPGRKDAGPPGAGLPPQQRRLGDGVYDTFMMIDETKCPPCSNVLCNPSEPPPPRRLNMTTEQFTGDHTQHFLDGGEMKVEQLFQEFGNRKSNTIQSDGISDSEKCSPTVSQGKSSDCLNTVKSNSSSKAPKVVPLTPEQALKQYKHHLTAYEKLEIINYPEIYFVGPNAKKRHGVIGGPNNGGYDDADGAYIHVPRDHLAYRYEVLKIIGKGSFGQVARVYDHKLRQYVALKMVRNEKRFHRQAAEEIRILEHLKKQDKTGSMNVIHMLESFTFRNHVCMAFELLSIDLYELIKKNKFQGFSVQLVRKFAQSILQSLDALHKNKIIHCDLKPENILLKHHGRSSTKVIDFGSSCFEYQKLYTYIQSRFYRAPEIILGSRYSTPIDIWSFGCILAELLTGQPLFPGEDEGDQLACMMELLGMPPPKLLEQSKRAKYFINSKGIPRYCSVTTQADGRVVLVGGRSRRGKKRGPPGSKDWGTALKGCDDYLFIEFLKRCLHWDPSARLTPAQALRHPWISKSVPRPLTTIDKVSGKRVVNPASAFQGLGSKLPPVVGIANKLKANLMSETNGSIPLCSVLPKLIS

[10] = target: Serine/threonine-protein kinase pim-1 (Homo sapiens, UniProt P11309); assay: Inhibition of human recombinant Pim1 expressed in Escherichia coli using histone H1 as substrate incubated for 30 mins in presence of ATP by scintillation counting method
Chain of Serine/threonine-protein kinase pim-1 (P11309 whole entry): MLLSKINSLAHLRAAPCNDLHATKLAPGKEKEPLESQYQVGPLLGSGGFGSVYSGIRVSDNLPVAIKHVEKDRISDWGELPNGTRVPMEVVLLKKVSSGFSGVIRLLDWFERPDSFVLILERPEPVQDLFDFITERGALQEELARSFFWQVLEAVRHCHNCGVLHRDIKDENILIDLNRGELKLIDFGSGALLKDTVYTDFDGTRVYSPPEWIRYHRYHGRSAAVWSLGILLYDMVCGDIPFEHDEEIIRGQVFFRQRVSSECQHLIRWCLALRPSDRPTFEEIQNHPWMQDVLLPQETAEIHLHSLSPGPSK

Casein kinase 2 = Casein kinase 2 (Homo sapiens, UniProt P67870+P68400+P19784+Q8NEV1); assay: Inhibition of human recombinant CK2 using RRRDDDSDDD peptide as substrate incubated for 30 mins in presence of ATP by scintillation counting method; assay type: protein assay
HT-22 = assay: Neuroprotective activity against glutamate-induced cell death in mouse HT-22 cells treated for 24 hrs by MTS assay; assay type: functional, cell-based; settings: HT-22, 24 h
U2OS = assay: Induction of PI3K/mTor-dependent autophagy in human U2OS cells assessed as number of LC3 foci per cell at 10 uM measured after 4 hrs; assay type: cell-based; settings: filed as activator
Cannabinoid receptor 1 = Cannabinoid receptor 1 (Homo sapiens, UniProt P21554); assay: Antagonist activity at CP-55940-activated CB1 receptor (unknown origin) at 10 uM by beta-arrestin assay relative to control; assay type: functional; parameters: scale not given: the % may be the effect or the level left
Chain of Cannabinoid receptor 1 (P21554 whole entry): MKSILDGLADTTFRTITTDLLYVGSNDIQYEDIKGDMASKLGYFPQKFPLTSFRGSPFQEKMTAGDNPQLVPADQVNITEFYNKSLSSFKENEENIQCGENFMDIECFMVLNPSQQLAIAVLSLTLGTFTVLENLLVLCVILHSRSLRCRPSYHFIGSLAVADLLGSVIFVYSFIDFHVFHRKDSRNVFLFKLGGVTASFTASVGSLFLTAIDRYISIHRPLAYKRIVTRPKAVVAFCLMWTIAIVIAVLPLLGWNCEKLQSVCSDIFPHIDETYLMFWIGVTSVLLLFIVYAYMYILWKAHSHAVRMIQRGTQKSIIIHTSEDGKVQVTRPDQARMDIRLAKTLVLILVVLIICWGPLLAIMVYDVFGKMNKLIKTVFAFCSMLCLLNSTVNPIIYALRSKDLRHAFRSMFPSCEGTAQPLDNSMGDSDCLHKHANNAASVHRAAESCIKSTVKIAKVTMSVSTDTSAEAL

[11] = Neurotoxicity against mouse HT-22 cells assessed as cell survival at 20 uM treated for 24 hrs by MTS assay; assay type: toxicity, cell-based; settings: ht-22, 24 h

Compound | IC50 [1] | IC50 [2] | IC50 [3] | IC50 [4] | IC50 [5] | IC50 [6] | IC50 [7] | IC50 [8] | IC50 [9] | IC50 [10] | IC50 (Casein kinase 2) | EC50 (HT-22) | Activity (U2OS) | Activity (Cannabinoid receptor 1) | Activity [11] | Activity (Cannabinoid receptor 1; filed as antagonist)
O=C1NC(Nc2ccccc2)=N/C1=C\c1ccc(O)c(O)c1 | 1.2 µM | 0.13 µM | 2.3 µM | 0.21 µM | 1.5 µM | 0.15 µM | 0.32 µM | 0.27 µM | 1.2 µM | 0.84 µM | 1.5 µM | 3.3 µM | 10.1 | -22.3% | Non-Toxic | –
O=C1NC(Nc2ccc(N3CCNCC3)cc2)=N/C1=C\c1ccc2c(c1)OC=CO2 | 4.6 µM | 0.64 µM | > 10 µM | 1.1 µM | 2.3 µM | 0.53 µM | 1.4 µM | 0.35 µM | 1.1 µM | 5.4 µM | 3 µM | 1.25 µM | 7.3 | -20% | Non-Toxic | –
O=C1NC(Nc2ccccc2)=N/C1=C\c1ccc2c(c1)OCCO2 | 2 µM | 0.14 µM | 2.4 µM | 0.13 µM | 0.88 µM | 0.076 µM | 0.25 µM | 0.092 µM | 0.42 µM | 1 µM | 0.97 µM | 10 µM | 6.6 | – | Non-Toxic | 96.3%
CCCCCOc1ccc(NC2=N/C(=C\c3ccc4c(c3)OCO4)C(=O)N2)cc1 | > 10 µM | 0.62 µM | > 10 µM | 0.85 µM | 3.1 µM | 0.71 µM | 2.3 µM | 0.51 µM | 7 µM | ≥ 10 µM | 1.3 µM | 1.14 µM | 7 | 37.4% | Non-Toxic | –
O=C1NC(Nc2ccc(N3CCNCC3)cc2)=N/C1=C\c1ccc2c(c1)OCO2 | 2.4 µM | 0.52 µM | 9 µM | 0.42 µM | 1.8 µM | 0.35 µM | 0.95 µM | 0.41 µM | 1.2 µM | 6.1 µM | 2.3 µM | 0.91 µM | 7.3 | -47.5% | Non-Toxic | –
O=C1NC(Nc2cccc(F)c2)=N/C1=C\c1ccc2c(c1)OCO2 | 0.56 µM | 0.03 µM | 0.56 µM | 0.052 µM | 0.13 µM | 0.019 µM | 0.035 µM | 0.023 µM | 0.35 µM | 1.2 µM | 0.8 µM | 5 µM | 7.5 | – | Non-Toxic | 83.4%
COc1cc(/C=C2\N=C(Nc3ccc(N4CCNCC4)cc3)NC2=O)ccc1O | 6.5 µM | 1.2 µM | > 10 µM | 1.2 µM | 3.5 µM | 1.3 µM | 2.2 µM | 2.1 µM | 1.5 µM | > 10 µM | – | 7 µM | 6.3 | -26.8% | Non-Toxic | –
